Patent US11873292B2, “Trans-indoline cyclopropylamine chemical compound, and method for preparation, pharmaceutical composition, and use thereof” (Shanghai Institute of Materia Medica, Chinese Academy of …, priority 2016, dated 2024)
Like-named read-outs stand apart in the source and are kept apart here.

Legend:
Human recombinant MAOA = Human recombinant MAOA (Homo sapiens (Human), UniProt P21397); assay: MAOA in vitro activity experiment (MAO-Glo); assay type: biochemical
human recombinant MAOB = human recombinant MAOB (Homo sapiens (Human), UniProt P27338); assay: MAOB in vitro activity experiment (MAO-Glo); assay type: biochemical
Chain of human recombinant MAOB (P27338 whole entry): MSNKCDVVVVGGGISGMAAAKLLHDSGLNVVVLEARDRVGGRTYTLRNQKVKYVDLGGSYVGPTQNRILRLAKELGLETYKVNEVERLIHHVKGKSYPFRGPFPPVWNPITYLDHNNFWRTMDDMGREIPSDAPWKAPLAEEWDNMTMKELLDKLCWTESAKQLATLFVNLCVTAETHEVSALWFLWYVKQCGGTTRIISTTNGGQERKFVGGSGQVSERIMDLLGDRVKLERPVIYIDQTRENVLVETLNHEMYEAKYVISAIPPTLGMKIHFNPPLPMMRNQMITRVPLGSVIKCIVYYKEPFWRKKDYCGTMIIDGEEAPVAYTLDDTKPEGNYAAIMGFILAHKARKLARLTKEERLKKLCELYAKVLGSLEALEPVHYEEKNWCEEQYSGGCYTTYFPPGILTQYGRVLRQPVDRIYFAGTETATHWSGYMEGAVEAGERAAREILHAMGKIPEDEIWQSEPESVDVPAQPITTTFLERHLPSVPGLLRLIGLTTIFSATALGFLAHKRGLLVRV

[1] = system: Leukemia cell line MV4-11; assay: Growth-inhibitory activity by MTS method; assay type: cell-based; conditions: Homo sapiens, MV4-11 cells
Excerpt: MTS assay was used to detect the growth inhibitory effect of tested compounds on leukemia cell MV (4:11), the principle of which was that succinate dehydrogenase in mitochondria in living cells can reduce exogenous thiazole blue to insoluble Blue crystalline Formazan.
MATERIALS: Leukemia cell line MV4-11: pediatric acute lymphocytic leukemia, immunological double phenotype, AF4-MLL fusion t (4,11), is a cell growth inhibitory cell line of LSD1 inhibitor (Cancer cell. 2012, 17; 21(4): 473-487).
1. MV4-11 cells in the logarithmic growth phase were taken, accurately counted 16000 cells/mL, and the diluted cell solution was added to a 96-well plate at 90 μL per well.
2. Fresh medium was taken and sequentially added to a 96-well plate with cell fluid, 90 μL per well.
3. In the compound plate, the compound to be tested at a concentration of 10 mM and the positive compounds ORY-1001 and GSK2879552 were taken and subjected to a 3-fold concentration gradient dilution with DMSO, 8 points for each.
4. 2 μL of the diluted compound was separately added to a 96-well plate containing 98 μL of blank medium, and DMSO group was added with 2 μL of DMSO into 98 μL of blank medium, and mixed for use.
5. The compound homogeneously mixed with the medium was separately added to a 96-well plate in which cells were plated in triplicate, 20 μL per well, and well mixed. In the blank group, 200 μL of IMDM medium was added, and in the DMSO group, 180 μL of the cell-containing medium in DMSO diluted with the medium was added.
6. […]
7. After 10 days, MTS was added and the values were read after 2.5 h of incubation.

Human recombinant LSD1 = Human recombinant LSD1 (Homo sapiens (Human), UniProt O60341); assay: LSD1 in vitro activity assay (LANCE Ultra LSD1 Histone H3-Lysine 4 Demethylase Assay); assay type: biochemical; conditions: LSD1 inhibition

Chain of Human recombinant MAOA (P21397 whole entry): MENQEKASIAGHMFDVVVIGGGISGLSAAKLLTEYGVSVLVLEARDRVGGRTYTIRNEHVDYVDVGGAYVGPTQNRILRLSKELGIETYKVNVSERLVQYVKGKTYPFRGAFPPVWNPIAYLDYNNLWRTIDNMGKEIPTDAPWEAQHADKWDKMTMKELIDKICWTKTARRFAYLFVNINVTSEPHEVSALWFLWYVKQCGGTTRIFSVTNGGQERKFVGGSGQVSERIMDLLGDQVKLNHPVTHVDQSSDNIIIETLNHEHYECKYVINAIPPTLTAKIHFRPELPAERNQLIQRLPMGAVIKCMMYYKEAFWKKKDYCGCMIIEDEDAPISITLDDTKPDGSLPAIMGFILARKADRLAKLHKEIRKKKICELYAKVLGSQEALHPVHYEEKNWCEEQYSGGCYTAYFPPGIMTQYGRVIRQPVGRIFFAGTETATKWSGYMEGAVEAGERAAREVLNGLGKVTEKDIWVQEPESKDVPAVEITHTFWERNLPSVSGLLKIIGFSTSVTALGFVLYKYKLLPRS

Row | IC50 ([1]; 3 D, read-out: MTS 3 D) | IC50 ([1]; 10 D, read-out: MTS 10 D) | Compound | IC50 (Human recombinant MAOA) | IC50 (human recombinant MAOB) | IC50 (Human recombinant LSD1) | melting point
1 | > 20 µM | 3.23 ± 3.64 µM | O=C(Cc1ccccc1)N1CCc2cc([C@@H]3C[C@H]3NCC3CCNCC3)ccc21 (relative stereo) [Compound A49, Trans-2-phenyl-1-(5-(2-(piperidin-4-ylmethylamino)cyclopropyl)indolin-1-yl)ethanone] | > 100 µM | > 100 µM |  | 
2 |  |  | O=C(OCc1ccccc1)N1CCC(CN[C@@H]2C[C@H]2c2ccc3c(c2)CCN3S(=O)(=O)c2ccccc2)CC1 (relative stereo) [Compound A28, Trans-benzyl 4-((2-(1-(phenylsulfonyl)indolin-5-yl)cyclopropylamino)methyl)piperidine-1-carboxylate] |  |  | 0.265 ± 0.0808 µM | 90 to 92 °C
3 |  |  | COCCC(=O)N1CCc2cc([C@@H]3C[C@H]3NCC3CCNCC3)ccc21 (relative stereo) [Compound A56, Trans-3-methoxy-1-(5-(2-(piperidin-4-ylmethylamino)cyclopropyl)indolin-1-yl)propan-1-one] | > 100 µM | > 100 µM | 0.0269 ± 0.0221 µM | 
4 |  |  | CCCS(=O)(=O)N1CCc2cc([C@@H]3C[C@H]3NCC3CCNCC3)ccc21 (relative stereo) [Compound A41, trans-N-(piperidin-4-ylmethyl)-2-(1-(propylsulfonyl)indolin-5-yl)cyclopropylamine] | > 100 µM | > 100 µM |  | 187 to 191 °C
5 |  |  | O=C(C1CCCCC1)N1CCc2cc([C@@H]3C[C@H]3NCC3CCNCC3)ccc21 (relative stereo) [Compound A59, Trans-cyclohexyl (5-(2-(piperidin-4-ylmethylamino)cyclopropyl)indolin-1-yl)methanone] |  |  |  | 166 to 168 °C
6 |  |  | O=C(OCc1ccccc1)N1CCc2cc([C@@H]3C[C@H]3NCC3CCNCC3)ccc21 (relative stereo) [Compound A50, Trans-benzyl-5-(2-(piperidin-4-ylmethylamino)cyclopropyl)Indoline-1-carboxylate] | > 100 µM | 10.7 ± 1.22 µM | 0.0353 ± 0.00348 µM | 215 to 218 °C
7 |  |  | O=C(c1ccc(-c2ccccc2)cc1)N1CCc2cc([C@@H]3C[C@H]3NCC3CCNCC3)ccc21 (relative stereo) [Compound A47, Trans-biphenyl-4-yl(5-(2-(piperidin-4-ylmethylamino)cyclopropyl)indolin-1-yl)methanone] | > 100 µM | 7.33 ± 0.11 µM | 0.0102 ± 0.00159 µM | 179 to 180 °C
8 |  |  | N[C@@H]1C[C@H]1c1ccc2c(c1)CCN2S(=O)(=O)c1ccccc1 (relative stereo) [Compound A1, Trans-2-(1-(phenylsulfonyl)indolin-5-yl)cyclopropylamine] |  |  | 1.79 ± 0.0884 µM | 190 to 193 °C
9 | > 20 µM | 1.23 ± 1.13 µM | CC(C)(C)C(=O)N1CCc2cc([C@@H]3C[C@H]3NCC3CCNCC3)ccc21 (relative stereo) [Compound A58, Trans-2,2-dimethyl-1-(5-(2-(piperidin-4-ylmethylamino)cyclopropyl)indolin-1-yl)propan-1-one] | > 100 µM | 70.7 ± 12.6 µM |  | 
10 |  |  | CC(C)(C)OC(=O)N1CCC(C(=O)N[C@@H]2C[C@H]2c2ccc3c(c2)CCN3S(=O)(=O)c2ccccc2)CC1 (relative stereo) [Compound A29, Trans-tert-butyl 4-(2-(1-(phenylsulfonyl)indolin-5-yl)cyclopropylcarbamoyl)piperidine-1-carboxylate] |  |  | 1.69 ± 0.449 µM | 146 to 148 °C
11 |  |  | O=C(c1cccc(C(F)(F)F)c1)N1CCc2cc([C@@H]3C[C@H]3NCC3CCNCC3)ccc21 (relative stereo) [Compound A48, Trans-(5-(2-(piperidin-4-ylmethylamino)cyclopropyl)indolin-1-yl)(3-(trifluoromethyl)phenyl) methanone] | > 100 µM | 42.6 ± 0.78 µM | 0.02557 ± 0.00011 µM | 230 to 232 °C
12 | > 20 µM | 4.14 ± 3.47 µM | O=C(c1ccccc1)N1CCc2cc([C@@H]3C[C@H]3NCC3CCNCC3)ccc21 (relative stereo) [Compound A45, trans-phenyl (5-(2-(piperidin-4-ylmethylamino)cyclopropyl)indolin-1-yl)methanone] | > 100 µM | 32.9 ± 1.24 µM |  | 
13 | 8.25 ± 1.7 µM | 1.21 ± 0.4 µM | O=S(=O)(c1ccccc1)N1CCc2cc([C@@H]3C[C@H]3NCCC3CCNCC3)ccc21 (relative stereo) [Compound A16, trans-N-(4-piperidinylethyl)-2-(1-(phenylsulfonyl)indolin-5-yl)cyclopropylamine] | > 100 µM | > 100 µM |  | 
14 | 8.55 ± 1.84 µM | 1.16 ± 0.26 µM | NC1CCC(NC2CC2c2ccc3c(c2)CCN3S(=O)(=O)c2ccccc2)CC1 (stereo not drawn) [Compound A19, trans-N1-(2-(1-(phenylsulfonyl)indolin-5-yl)cyclopropyl)cyclohexane-1,4-diamine] |  |  |  | 
15 |  |  | O=S(=O)(c1cccc(Cl)c1)N1CCc2cc([C@@H]3C[C@H]3NCC3CCNCC3)ccc21 (relative stereo) [Compound A38, trans-2-(1-(3-chlorobenzenesulfonyl)indolin-5-yl)-N-(piperidin-4-ylmethyl)cyclopropylamine] | 73.9 ± 1.34 µM | 40.9 ± 1.41 µM |  | 
16 |  |  | O=S(=O)(c1ccc(C(F)(F)F)cc1)N1CCc2cc([C@@H]3C[C@H]3NCC3CCNCC3)ccc21 (relative stereo) [Compound A34, trans-N-(piperidin-4-ylmethyl)-2-(1-(4-(trifluoromethyl)benzenesulfonyl)indolin-5-yl)cyclopropylamine] | > 100 µM | > 100 µM | 0.0433 ± 0.00509 µM | 217 to 221 °C
17 |  |  | O=S(=O)(c1ccccc1)N1CCc2cc([C@@H]3C[C@H]3NCC3CCN(Cc4ccccc4)CC3)ccc21 (relative stereo) [Compound A24, trans-N-((1-benzylpiperidin-4-yl)methyl)-2-(1-(phenylsulfonyl)indolin-5-yl)cyclopropylamine] | 15.9 ± 2 µM | > 100 µM |  | 
18 |  |  | CC(C)(C)OC(=O)c1ccc(CN2CCC(CNC3CC3c3ccc4c(c3)CCN4S(=O)(=O)c3ccccc3)CC2)cc1 (stereo not drawn) [Compound A25, Trans-tert-butyl 4-((4-(2-(1-(phenylsulfonyl))indolin-5-yl)cyclopropylamino)methyl)piperidin-1-yl)methyl) benzoate] |  |  | 0.534 ± 0.384 µM | 62 to 65 °C
19 | 1.25 ± 0.51 µM | 0.6 ± 0.13 µM | O=S(=O)(c1ccccc1)N1CCc2cc(C3CC3NCc3c[nH]c4ccccc34)ccc21 (stereo not drawn) [Compound A8] |  |  |  | 
20 |  |  | CC(C)(C)OC(=O)N1CCC(CN[C@@H]2C[C@H]2c2ccc3c(c2)CCN3S(=O)(=O)c2ccccc2)CC1 (relative stereo) [Compound A27, Trans-tert-butyl 4-((2-(1-(phenylsulfonyl)indolin-5-yl)cyclopropylamino)methyl)piperidine-1-carboxylate] | > 100 µM | > 100 µM | 0.0713 ± 0.0043 µM | 60 to 61 °C
21 | 7.91 ± 1.61 µM | 1.36 ± 0.92 µM | O=S(=O)(c1ccccc1)N1CCc2cc(C3CC3NCC3CCNCC3)ccc21 (stereo not drawn) [Compound A14, trans-N-(4-piperidinylmethylene)-2-(1-(phenylsulfonyl)indolin-5-yl)cyclopropylamine] |  |  |  | 
22 |  |  | O=S(=O)(c1ccccc1)N1CCc2cc([C@@H]3C[C@H]3NCC3CNC3)ccc21 (relative stereo) [Compound A17, trans-N-(azetidin-3-ylmethyl)-2-(1-(phenylsulfonyl)indolin-5-yl)cyclopropylamine] | 16.2 ± 0.31 µM | 9.22 ± 0.98 µM |  | 
23 |  |  | O=C(O)c1ccc(CN2CCC(CNC3CC3c3ccc4c(c3)CCN4S(=O)(=O)c3ccccc3)CC2)cc1 (stereo not drawn) [Compound A26, Trans-4-((4-(2-(1-(phenylsulfonyl))indolin-5-yl)cyclopropylamino)methyl)piperidin-1-yl) methyl)benzoic acid] |  |  | 0.461 ± 0.0319 µM | 190 to 192 °C

Row | Compound | IC50 ([1]; 3 D, read-out: MTS 3 D) | IC50 ([1]; 10 D, read-out: MTS 10 D) | IC50 (Human recombinant MAOA) | IC50 (human recombinant MAOB) | IC50 (Human recombinant LSD1) | melting point
24 | O=C(O)c1ccc(CN2CCC(CN[C@@H]3C[C@H]3c3ccccc3)CC2)cc1 [GSK2879552, GSK-2879552, reference compound] | > 20 µM | 1.81 µM | > 100 µM | > 100 µM | 0.404 ± 0.0308 µM | 
25 | O=S(=O)(c1ccccc1)N1CCc2cc([C@@H]3C[C@H]3NC3CCNCC3)ccc21 (relative stereo) [Compound A15, trans-N-(4-piperidinyl)-2-(1-(phenylsulfonyl)indolin-5-yl)cyclopropylamine] | 3.4 ± 1.64 µM | 0.18 ± 0.49 µM | > 100 µM | > 100 µM | 0.0227 ± 0.00037 µM | 
